Measurements from paper PMC6766931, “Design, Synthesis, and Activity Evaluation of Novel N-benzyl Deoxynojirimycin Derivatives for Use as α-Glucosidase Inhibitors” (Molecules, 2019).

Tests used:
α-glucosidase [1] = target: T1, α-glucosidase (Saccharomyces cerevisiae, UniProt P53341); assay: In vitro assay of α-glucosidase inhibitory activity (PNPG, 96-well microplates); format: biochemical; details: substrate PNPG, pH 6.8, 37 °C, read-out: IC50 (mM) ± SEM
T1 construct: purchased Sigma-Aldrich

α-glucosidase [2] = target: T1, α-glucosidase; assay: Enzyme kinetics study (Michaelis-Menten, non-linear regression); format: biochemical; details: inhibitor concentration 0.25 mM; for Vmax: substrate PNPG 0.1-5 mM
Method: In the enzyme kinetics studies, the enzyme activity was measured at different times using different concentrations of the substrate p-nitrophenyl α-D-glucopyranoside (0.1, 0.2, 0.8, 1.0, 1.2, 1.6, 1.8, 2.0, 2.5, 5 mM). The kinetics of the enzymatic reaction were fit to the Michaelis‒Menten equation. The Michaelis‒Menten equation is as follows:V = Vmax[S]/(Km + [S]).
In this equation, [S] is the concentration of the substrate, Vmax is the maximum reaction velocity of the enzymatic reaction, and Km is the Michaelis constant. […] Non-linear fitting was performed with the help of Origin 8.5, which can calculate the Vmax and Km values. The Ki constant was determined as follows:Ki = [I]/(K’m/Km − 1).
In this formula, [I] is the concentration of inhibitor, K’m is the Michaelis constant of the experimental group, and Km is the Michaelis constant of the blank group.
The same protocol was followed for the experiments reported in Figure 1 except that the inhibitor concentration was 0.25 mM and the substrate concentration was varied as indicated (0.1, 0.2, 0.8, 1.0, 1.2, 1.6, 1.8, 2.0, 2.5, 5 mM). The Km and Vmax values were calculated using […], and then, the Ki value was calculated using the formula that was mentioned in Section 2.3.

[3] = design: method as in PMID 1475231; details: rats, cited from earlier work
[4] = design: method as in earlier work; details: quickly metabolized and excreted; cited from earlier work
[5] = intravenous administration, biphasic reduction in plasma

T1 sequence (P53341 whole entry): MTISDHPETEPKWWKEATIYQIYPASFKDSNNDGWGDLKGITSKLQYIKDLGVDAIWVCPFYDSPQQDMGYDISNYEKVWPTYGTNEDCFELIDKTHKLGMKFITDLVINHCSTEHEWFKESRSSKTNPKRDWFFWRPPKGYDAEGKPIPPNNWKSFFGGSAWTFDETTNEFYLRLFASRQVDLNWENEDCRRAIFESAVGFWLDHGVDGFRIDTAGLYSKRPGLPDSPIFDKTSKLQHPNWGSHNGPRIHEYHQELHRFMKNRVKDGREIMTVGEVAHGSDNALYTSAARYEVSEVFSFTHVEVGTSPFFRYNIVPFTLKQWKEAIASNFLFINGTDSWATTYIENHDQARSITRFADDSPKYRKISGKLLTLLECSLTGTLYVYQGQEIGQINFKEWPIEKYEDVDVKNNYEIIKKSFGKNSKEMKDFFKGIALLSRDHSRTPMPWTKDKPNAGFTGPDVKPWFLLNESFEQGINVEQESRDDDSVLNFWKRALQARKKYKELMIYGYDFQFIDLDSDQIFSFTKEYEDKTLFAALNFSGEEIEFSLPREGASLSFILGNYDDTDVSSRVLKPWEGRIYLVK

Compound	IC50 (α-glucosidase [1]) [mM]	also measured
Cc1cccc(CN2CC(O)C(O)C(O)C2CO)c1 (stereo not shown) [Compound 12k, 2-(hydroxymethyl)-1-(3-methylbenzyl) Piperidine-3,4,5-triol]	10.3 ± 0.21	–
COc1cc(CN2CC(O)C(O)C(O)C2CO)ccc1O (stereo not shown) [Compound 18a, 1-(4-hydroxy-3-methoxybenzyl)-2-(hydroxymethyl) piperidine-3,4,5-triol]	0.207 ± 0.11	Vmax (α-glucosidase [2]): 3.56 ± 0.28 *10^−6 mmol/min; Ki (α-glucosidase [2]; Ki = [I]/(K'm/Km − 1)): 0.11 ± 0.3 mM
C[C@H]1O[C@H](O[C@H]2[C@H](O)[C@@H](O)[C@@H](O[C@H]3[C@H](O)[C@@H](O)C(O)O[C@@H]3CO)O[C@@H]2CO)[C@H](O)[C@@H](O)[C@@H]1N[C@H]1C=C(CO)[C@@H](O)[C@H](O)[C@H]1O (stereo partly shown) [Acarbose, reference compound]	–	Vmax (α-glucosidase [2]): 4.40 ± 0.42 *10^−6 mmol/min
OCC1C(O)C(O)C(O)CN1Cc1ccc(I)cc1 (stereo not shown) [Compound 12d, 2-(hydroxymethyl)-1-(4-iodobenzyl) Piperidine-3,4,5-triol]	9.88 ± 0.05	–
OCC1C(O)C(O)C(O)CN1Cc1cccc(Cl)c1 (stereo not shown) [Compound 12h, 1-(3-chlorobenzyl)-2-(hydroxymethyl) Piperidine-3,4,5-triol]	15.32 ± 0.04	–
OCC1C(O)C(O)C(O)CN1Cc1ccc(Cl)cc1 (stereo not shown) [Compound 12b, 1-(4-chlorobenzyl)-2-(hydroxymethyl) piperidine-3,4,5-triol]	11.22 ± 0.02	–
COc1cc(CN2C[C@H](O)[C@@H](O)[C@H](O)[C@H]2CO)cc(Br)c1OCc1ccccc1 [Compound 17b]	15.68 ± 0.06	–
OCC1C(O)C(O)C(O)CN1Cc1ccc(Br)cc1 (stereo not shown) [Compound 12c, 1-(4-bromobenzyl)-2-(hydroxymethyl) Piperidine-3,4,5-triol]	12.55 ± 0.03	–
OCC1C(O)C(O)C(O)CN1Cc1cccc(F)c1 (stereo not shown) [Compound 12g, 1-(3-fluorobenzyl)-2-(hydroxymethyl) Piperidine-3,4,5-triol]	10.23 ± 0.02	–
COc1ccc(CN2CC(O)C(O)C(O)C2CO)cc1 (stereo not shown) [Compound 12f, 2-(hydroxymethyl)-1-(4-methoxybenzyl) Piperidine-3,4,5-triol]	1.02 ± 0.23	–
OCC1C(O)C(O)C(O)CN1Cc1ccc(F)cc1 (stereo not shown) [Compound 12a, 1-(4-fluorobenzyl)-2-(hydroxymethyl) piperidine-3,4,5-triol]	9.8 ± 0.31	–
Cc1ccc(CN2CC(O)C(O)C(O)C2CO)cc1 (stereo not shown) [Compound 12e, 2-(hydroxymethyl)-1-(4-methylbenzyl) Piperidine-3,4,5-triol]	8.65 ± 0.08	–
COc1cc(CN2CC(O)C(O)C(O)C2CO)cc(Br)c1O (stereo not shown) [Compound 18b, 1-(3-bromo-4-hydroxy-5-methoxybenzyl)-2-(hydroxymethyl) piperidine-3,4,5-triol]	0.276 ± 0.13	–
CN1C[C@H](O)[C@@H](O)[C@H](O)[C@H]1CO [N-methyl-DNJ]	–	initial t1/2 in plasma [3, 5]: 4.5 min; terminal t1/2 in plasma [3, 5]: 32 min; dose recovered from the urine unchanged ([3]; intravenous, at 120 min after administration): 80%
COc1cc(CN2CC(O)C(O)C(O)C2CO)cc(Br)c1OC (stereo not shown) [Compound 17c, 1-(3-bromo-4,5-dimethoxybenzyl)-2-(hydroxymethyl) Piperidine-3,4,5-triol]	1.06 ± 0.11	–
COc1cc(CN2CC(O)C(O)C(O)C2CO)c(Br)c(Br)c1OC (stereo not shown) [Compound 17d, 1-(2,3-dibromo-4,5-dimethoxybenzyl)-2-(hydroxymethyl) Piperidine-3,4,5-triol]	1.14 ± 0.09	–
OCC1C(O)C(O)C(O)CN1Cc1cccc(I)c1 (stereo not shown) [Compound 12j, 2-(hydroxymethyl)-1-(3-iodobenzyl) Piperidine-3,4,5-triol]	10.54 ± 0.04	–
COc1cccc(CN2CC(O)C(O)C(O)C2CO)c1 (stereo not shown) [Compound 12l, 2-(hydroxymethyl)-1-(3-methoxybenzyl) Piperidine-3,4,5-triol]	1.25 ± 0.34	–
COc1c(Br)c(Br)c(CN2C[C@H](O)[C@@H](O)[C@H](O)[C@H]2CO)c(Br)c1OC [Compound 17e, 2-(hydroxymethyl)-1-(2,3,6-tribromo-4,5-dimethoxybenzyl)-2-piperidine-3,4,5-triol]	9.57 ± 0.08	–
OCC1C(O)C(O)C(O)CN1Cc1cccc(Br)c1 (stereo not shown) [Compound 12i, 1-(3-bromobenzyl)-2-(hydroxymethyl) Piperidine-3,4,5-triol]	15.66 ± 0.04	–
OC[C@H]1NC[C@H](O)[C@@H](O)[C@@H]1O [Compound 1-DNJ, 1-deoxynojirimycin]	–	hypoglycaemic effect in vivo [4]: no significant hypoglycaemic effect
